Data published in the supplement of paper PMC10307832.

Tests used:
Assay in all cases: relative viability (nuclei count vs DMSO), 5 days (fraction); higher = more cells survive
VE-821 + Alpelisib = compound: CS(=O)(=O)c1ccc(-c2cnc(N)c(C(=O)Nc3ccccc3)n2)cc1 [VE-821] + Cc1nc(NC(=O)N2CCC[C@H]2C(N)=O)sc1-c1ccnc(C(C)(C)C(F)(F)F)c1 [Alpelisib] (partner 2 µM)
In short: (§1)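 Lung cancer cell lines, seeded in 1536-well plates, were treated the following day by pin tool with a single drug or with five library-drug doses (not always all listed) in √10 steps on top of a fixed anchor-drug dose. Cells were fixed and nuclei stained in one step after 5 days, and nuclei were counted. Relative viability is the nuclei count for treated wells divided by that for vehicle wells, reported as medians of duplicate plates.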

VE-821 + Olaparib = compound: CS(=O)(=O)c1ccc(-c2cnc(N)c(C(=O)Nc3ccccc3)n2)cc1 [VE-821] + O=C(c1cc(Cc2n[nH]c(=O)c3ccccc23)ccc1F)N1CCN(C(=O)C2CC2)CC1 [Olaparib] (partner 8 µM)
In short: as §1

Vismodegib + Lapatinib = compound: CS(=O)(=O)c1ccc(C(=O)Nc2ccc(Cl)c(-c3ccccn3)c2)c(Cl)c1 [Vismodegib] + CS(=O)(=O)CCNCc1ccc(-c2ccc3ncnc(Nc4ccc(OCc5cccc(F)c5)c(Cl)c4)c3c2)o1 [Lapatinib] (partner 2 µM)
In short: as §1

Vismodegib + Trametinib = compound: CS(=O)(=O)c1ccc(C(=O)Nc2ccc(Cl)c(-c3ccccn3)c2)c(Cl)c1 [Vismodegib] + CC(=O)Nc1cccc(-n2c(=O)n(C3CC3)c(=O)c3c(Nc4ccc(I)cc4F)n(C)c(=O)c(C)c32)c1 [Trametinib] (partner 0.02 µM)
In short: as §1

Cell Line | relative viability (VE-821 + Alpelisib; first compound 0.08 µM) | relative viability (VE-821 + Alpelisib; first compound 0.253 µM) | relative viability (VE-821 + Alpelisib; first compound 0.8 µM) | relative viability (VE-821 + Alpelisib; first compound 2.53 µM) | relative viability (VE-821 + Alpelisib; first compound 8 µM) | relative viability (VE-821 + Olaparib; first compound 0.08 µM) | relative viability (VE-821 + Olaparib; first compound 0.253 µM) | relative viability (VE-821 + Olaparib; first compound 0.8 µM) | relative viability (VE-821 + Olaparib; first compound 2.53 µM) | relative viability (VE-821 + Olaparib; first compound 8 µM) | relative viability (Vismodegib + Lapatinib; first compound 0.08 µM) | relative viability (Vismodegib + Lapatinib; first compound 0.253 µM) | relative viability (Vismodegib + Lapatinib; first compound 0.8 µM) | relative viability (Vismodegib + Lapatinib; first compound 2.53 µM) | relative viability (Vismodegib + Lapatinib; first compound 8 µM) | relative viability (Vismodegib + Trametinib; first compound 0.08 µM) | relative viability (Vismodegib + Trametinib; first compound 0.8 µM) | relative viability (Vismodegib + Trametinib; first compound 2.53 µM) | relative viability (Vismodegib + Trametinib; first compound 8 µM) | relative viability (Vismodegib + Trametinib; first compound 0.253 µM)
HARA | 1.05 | 0.912 | 0.688 | 0.926 | 0.704 | 0.695 | 0.798 | 0.583 | 0.387 | 0.391 | 0.858 | 0.713 | 0.662 | 0.797 | 0.634 | 0.749 | 0.613 | 0.689 | 0.659 | 
HCC-15 | 0.976 | 0.923 | 1.01 | 0.999 | 0.961 | 0.77 | 0.703 | 0.894 | 0.735 | 0.558 | 0.883 | 0.854 | 0.823 | 0.882 | 0.74 | 0.356 | 0.345 | 0.401 | 0.383 | 0.352
HCC-44 | 0.83 | 0.807 | 0.717 | 1.03 | 0.885 | 0.939 | 0.978 | 0.971 | 0.986 | 0.957 | 0.998 | 1.02 | 0.965 | 1.04 | 0.991 | 1.11 | 1.05 | 1.04 | 0.976 | 1.05
HCC-78 | 0.448 | 0.289 | 0.217 | 0.394 | 0.229 | 0.8 | 0.931 | 0.772 | 0.946 | 0.736 | 0.278 | 0.646 | 0.667 | 0.701 | 0.746 | 0.826 | 0.598 | 0.743 | 0.739 | 0.768
HCC-366 | 0.654 | 0.419 | 0.123 | 0.213 | 0.0456 | 0.654 | 0.342 | 0.19 | 0.0816 | 0.0499 | 1.08 | 1.01 | 1.1 | 1.01 | 1 | 0.348 | 0.334 | 0.37 | 0.343 | 0.292
HCC-827 | 1.05 | 0.972 | 0.784 | 1.07 | 0.825 | 0.735 | 0.753 | 0.136 | 0.734 | 0.711 | 0.162 | 0.163 | 0.185 | 0.192 | 0.214 | 0.519 | 0.528 | 0.522 | 0.509 | 0.491
IA-LM | 0.905 | 0.475 | 0.797 | 1.04 | 0.738 | 0.852 | 0.734 | 0.832 | 0.801 | 0.36 | 0.807 | 0.639 | 0.802 | 0.691 | 0.911 |  |  |  |  | 
LCLC-103H | 1 | 0.95 | 0.85 | 0.966 | 0.986 | 0.769 | 0.76 | 0.71 | 0.76 | 0.663 |  |  |  |  |  | 0.703 | 0.65 | 0.612 | 0.71 | 0.666
NCI-H441 | 0.902 | 0.801 | 0.682 | 0.672 | 0.744 | 0.6 | 0.643 | 0.584 | 0.469 | 0.247 |  |  |  |  |  | 0.512 | 0.409 | 0.469 | 0.489 | 
NCI-H522 |  |  |  |  |  | 0.627 | 0.698 | 0.645 | 0.657 | 0.594 |  |  |  |  |  | 0.797 | 0.639 | 0.609 | 0.669 | 0.763
NCI-H1299 | 1.09 | 1.04 | 1.12 | 1.09 | 1.07 | 1.04 | 1.01 | 1.07 | 0.896 | 0.527 | 0.952 | 0.893 | 0.992 | 0.968 | 1 |  |  |  |  | 
NCI-H1563 | 0.896 | 0.933 | 0.739 | 0.805 | 0.797 |  |  |  |  |  | 0.849 | 0.878 | 0.901 | 0.892 | 0.966 |  |  |  |  | 
NCI-H1648 |  |  |  |  |  | 1.14 |  | 0.909 | 0.922 | 0.468 |  |  |  |  |  | 0.38 | 0.383 | 0.49 | 0.535 | 0.48
NCI-H1650 |  |  |  |  |  | 0.686 | 0.83 | 0.542 | 0.796 | 0.429 | 0.704 | 0.767 | 0.666 | 0.806 | 0.748 | 0.621 | 0.643 | 0.606 | 0.666 | 0.522
NCI-H1703 | 0.379 | 0.253 | 0.279 | 0.343 | 0.233 | 0.417 | 0.506 | 0.416 | 0.462 | 0.437 | 1.12 | 0.822 | 1.21 | 1.16 | 1.52 |  |  |  |  | 
NCI-H2342 |  |  |  |  |  | 0.474 | 0.469 | 0.379 | 0.521 | 0.431 |  |  |  |  |  | 1.02 | 0.843 | 0.764 | 0.728 | 0.738
SW 900 |  |  |  |  |  | 0.936 | 0.941 | 0.768 | 0.786 | 0.606 |  |  |  |  |  | 0.801 | 1.1 |  | 0.921 | 0.73
